Measured values published in US20230063238A1, “IMMUNOMODULATORS” (Bristol-Myers Squibb Company, priority 2020, published 2023).
pIC50: −log10 of the molar value. Starred links: 1 amine or outer side, 2 acyl side, 3 side chain; linkers in the order of their positions; H or OH if unused. Positions of bridges follow the written chain, without caps; N, C: chain ends. Non-standard residues stand in square brackets, D forms with d. Residues, ends and D or L forms follow the SMILES beside them. *: point of attachment. Trp(1-CH2CO2Me) = COC(=O)Cn1cc(C[C@H](N)C(=O)O)c2ccccc21; Trp(1-CH2COOH) = N[C@@H](Cc1cn(CC(=O)O)c2ccccc12)C(=O)O; Hyp = O=C(O)[C@@H]1C[C@@H](O)CN1; Methoxyoxalyl = COC(=O)C(=O)*; Oxalyl = O=C(C(=O)[*:2])[*:1]; X9 = O=C(Nc1ccc(F)cc1F)C(=O)*; NMeNle = CCCC[C@H](NC)C(=O)O; X1 = O=C(Oc1ccccc1)C(=O)*; NMeA = CN[C@@H](C)C(=O)O; Dab = NCC[C@H](N)C(=O)O; Dap = NC[C@H](N)C(=O)O

The molecules below were run against T1, PD-1/PD-L1 (Homo sapiens, UniProt Q9NZQ7) (assay: PD-1/PD-L1 Homogenous Time-Resolved Fluorescence (HTRF) binding assay). Conditions: PD-L1-His 10 nM final, PD-1-Ig 20 nM final; inhibitors pre-incubated with PD-L1-His for 15 m.
T1 construct: TVMV protease site linker (C); made in house; host or cells: HEK293T cells
Description: The ability of the compounds of formula (I) to bind to PD-L1 was investigated using a PD-1/PD-L1 Homogenous Time-Resolved Fluorescence (HTRF) binding assay.
Homogenous Time-Resolved Fluorescence (HTRF) Binding Assay
The interaction of PD-1 and PD-L1 can be assessed using soluble, purified preparations of the extracellular domains of the two proteins. The PD-1 and PD-L1 protein extracellular domains were expressed as fusion proteins with detection tags, for PD-1, the tag was the Fc portion of Immunoglobulin (PD-1-Ig) and for PD-L1 it was the 6 histidine motif (PD-L1-His). All binding studies were performed in an HTRF assay buffer consisting of dPBS supplemented with 0.1% […] bovine serum albumin and 0.05% (v/v) Tween-20. For the h/PD-L1-His binding assay, inhibitors were pre-incubated with PD-L1-His (10 nM final) for 15 m in 4 μl of assay buffer, followed by addition of PD-1-Ig (20 nM final) in 1 μl of assay buffer and further incubation for 15m. HTRF detection was achieved using europium crypate-labeled anti-Ig (1 nM final) and allophycocyanin (APC) labeled anti-His (20 nM final). Antibodies were diluted in HTRF detection buffer and 5 μl was dispensed on top of the binding reaction. The reaction mixture was allowed to equilibrate for 30 minutes and the resulting signal (665 nm/620 nm ratio) was obtained using an EnVision fluorometer. Additional binding assays were established between the human proteins PD-1-Ig/PD-L2-His (20 & 5 nM, respectively) and CD80-His/PD-L1-Ig (100 & 10 nM, respectively).
Recombinant Proteins: Human PD-1 (25-167) with a C-terminal human Fc domain of immunoglobulin G (Ig) epitope tag [hPD-1 (25-167)-3S-IG] and human PD-L1 (18-239) with a C-terminal His epitope tag [hPD-L1(18-239)-TVMV-His] were expressed in HEK293T cells and purified sequentially by ProteinA affinity chromatography and size exclusion chromatography. Human PD-L2-His and CD80-His was obtained through commercial sources.
Table 1 lists the IC50 values for representative examples of this disclosure measured in the PD-1/PD-L1 Homogenous Time-Resolved Fluorescence (HTRF) binding assay.

T1 sequence (Q9NZQ7 18-239): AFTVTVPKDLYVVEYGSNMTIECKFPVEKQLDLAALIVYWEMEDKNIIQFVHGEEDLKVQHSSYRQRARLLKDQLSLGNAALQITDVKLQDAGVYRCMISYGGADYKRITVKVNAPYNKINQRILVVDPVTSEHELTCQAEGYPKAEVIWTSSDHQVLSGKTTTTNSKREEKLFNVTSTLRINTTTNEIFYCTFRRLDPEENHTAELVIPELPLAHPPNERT

| pIC50 | SMILES |
| --- | --- |
| 8.74 | CCCC[C@H]1C(=O)N(C)[C@@H](CCCC)C(=O)N[C@@H](CC(C)C)C(=O)N[C@H](C(=O)NCC(N)=O)CSCC(=O)N[C@@H](Cc2ccc(O)cc2)C(=O)N(C)[C@@H](C)C(=O)N[C@@H](CC(N)=O)C(=O)N2CCC[C@H]2C(=O)N[C@@H](CNC(=O)C(=O)Nc2ccc(F)cc2F)C(=O)N[C@@H](CC(C)C)C(=O)N2C[C@H](O)C[C@H]2C(=O)N[C@@H](Cc2c[nH]c3ccccc23)C(=O)N[C@@H](CCNC(=O)C(=O)Nc2ccc(F)cc2F)C(=O)N[C@@H](Cc2cn(CC(=O)OC)c3ccccc23)C(=O)N1C [Compound 2010] ({CH2CO}-Y[NMeA]NP[Dap](X9)L[Hyp]W[Dab](X9)[Trp(1-CH2CO2Me)][NMeNle][NMeNle]LCG-NH2; thioether N-14) |
| 8.20 | CCCC[C@H]1C(=O)N(C)[C@@H](CCCC)C(=O)N[C@@H](CC(C)C)C(=O)N[C@H](C(=O)NCC(N)=O)CSCC(=O)N[C@@H](Cc2ccc(O)cc2)C(=O)N(C)[C@@H](C)C(=O)N[C@@H](CC(N)=O)C(=O)N2CCC[C@H]2C(=O)N[C@@H](CNC(=O)C(=O)OC)C(=O)N[C@@H](CC(C)C)C(=O)N2C[C@H](O)C[C@H]2C(=O)N[C@@H](Cc2c[nH]c3ccccc23)C(=O)N[C@@H](CCNC(=O)C(=O)OC)C(=O)N[C@@H](Cc2cn(CC(=O)OC)c3ccccc23)C(=O)N1C [Compound 3001] ({CH2CO}-Y[NMeA]NP[Dap](Methoxyoxalyl)L[Hyp]W[Dab](Methoxyoxalyl)[Trp(1-CH2CO2Me)][NMeNle][NMeNle]LCG-NH2; thioether N-14) |
| 9.19 | CCCC[C@H]1C(=O)N(C)[C@@H](CCCC)C(=O)N[C@@H](CC(C)C)C(=O)N[C@H](C(=O)NCC(N)=O)CSCC(=O)N[C@@H](Cc2ccc(O)cc2)C(=O)N(C)[C@@H](C)C(=O)N[C@@H](CC(N)=O)C(=O)N2CCC[C@H]2C(=O)N[C@@H](CNC(=O)C(=O)Oc2ccccc2)C(=O)N[C@@H](CC(C)C)C(=O)N2C[C@H](O)C[C@H]2C(=O)N[C@@H](Cc2c[nH]c3ccccc23)C(=O)N[C@@H](CCNC(=O)C(=O)Oc2ccccc2)C(=O)N[C@@H](Cc2cn(CC(=O)OC)c3ccccc23)C(=O)N1C [Compound 3003] ({CH2CO}-Y[NMeA]NP[Dap](X1)L[Hyp]W[Dab](X1)[Trp(1-CH2CO2Me)][NMeNle][NMeNle]LCG-NH2; thioether N-14) |

Second part, the molecule before the results:

| SMILES | pIC50 |
| --- | --- |
| CCCC[C@H]1C(=O)N(C)[C@@H](CCCC)C(=O)N[C@@H](CC(C)C)C(=O)N[C@H](C(=O)NCC(N)=O)CSCC(=O)N[C@@H](Cc2ccc(O)cc2)C(=O)N(C)[C@@H](C)C(=O)N[C@@H](CC(N)=O)C(=O)N2CCC[C@H]2C(=O)N[C@@H](CNC(=O)C(=O)O)C(=O)N[C@@H](CC(C)C)C(=O)N2C[C@H](O)C[C@H]2C(=O)N[C@@H](Cc2c[nH]c3ccccc23)C(=O)N[C@@H](CCNC(=O)C(=O)O)C(=O)N[C@@H](Cc2cn(CC(=O)O)c3ccccc23)C(=O)N1C [Compound 4001] ({CH2CO}-Y[NMeA]NP[Dap](Oxalyl)L[Hyp]W[Dab](Oxalyl)[Trp(1-CH2COOH)][NMeNle][NMeNle]LCG-NH2; thioether N-14) | 8.44 |
| CCCC[C@H]1C(=O)N(C)[C@@H](CCCC)C(=O)N[C@@H](CC(C)C)C(=O)N[C@H](C(=O)NCC(N)=O)CSCC(=O)N[C@@H](Cc2ccc(O)cc2)C(=O)N(C)[C@@H](C)C(=O)N[C@@H](CC(N)=O)C(=O)N2CCC[C@H]2C(=O)N[C@@H](CNC(=O)C(=O)O)C(=O)N[C@@H](CC(C)C)C(=O)N2C[C@H](O)C[C@H]2C(=O)N[C@@H](Cc2c[nH]c3ccccc23)C(=O)N[C@@H](CCNC(=O)C(=O)O)C(=O)N[C@@H](Cc2cn(CC(=O)OC)c3ccccc23)C(=O)N1C [Compound 5001] ({CH2CO}-Y[NMeA]NP[Dap](Oxalyl)L[Hyp]W[Dab](Oxalyl)[Trp(1-CH2CO2Me)][NMeNle][NMeNle]LCG-NH2; thioether N-14) | 8.59 |
